This is an account of results in PubChem BioAssay (NCI).

Several values for one entry are separate records, joined by “and”; a condition that tells them apart may be missing. Equal values may be shown once.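 Exposure lasted 48 hours, with cells grown in 96-well plates and compounds tested at five concentrations. Abbreviation: GI50, concentration required for 50% inhibition of growth. TGI marks complete inhibition of growth.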

Among the test systems are SF-295 CNS; OVCAR-4 ovarian; MALME-3M melanoma; SF-539 CNS; A549 NSCLC; NCI/ADR-RES ovarian; UO-31 renal; NCI-H226 lung; DU-145 prostate; T-47D breast.
What all share (test): inhibition of tumour cell growth, NCI panel, 48 h

`NC(=O)NN=C(CS)CS`: the TGI with SF-295 CNS was 49.5 µM; with OVCAR-4 ovarian it was above 100 µM; with MALME-3M melanoma, 40 µM; with SF-539 CNS, 40.7 µM; with A549 NSCLC, 40.7 µM; in the assay on NCI/ADR-RES ovarian, 71.9 µM. The TGI in the assay with UO-31 renal was determined as 54.4 µM.

Take `CN(C)CCCNc1ccc2ncn3c4ccccc4c(=O)c1c23`: the TGI in the assay with SF-295 CNS stood at 39 µM; in the assay with NCI-H226 lung it was 25.9 µM; with OVCAR-4 ovarian it was 97.1 µM; in the assay on MALME-3M melanoma, 49.2 µM; in the assay on SF-539 CNS, 90.8 µM; with UO-31 renal, 52.3 µM.

As to `O=c1ccc2cc(O)c(O)cc2o1`, the TGI in the assay with DU-145 prostate, with T-47D breast, with SF-295 CNS, in the assay on NCI-H226 lung, with OVCAR-4 ovarian and with MALME-3M melanoma was above 100 µM throughout. Also, the TGI in the assay on SF-539 CNS, with A549 NSCLC, in the assay with NCI/ADR-RES ovarian and in the assay on UO-31 renal was above 100 µM each time.

For `Cc1ccc(S(=O)(=O)NCCSCCNS(=O)(=O)c2ccc(C)cc2)cc1`, the TGI in the assay with DU-145 prostate, in the assay on T-47D breast, in the assay on SF-295 CNS, with NCI-H226 lung, in the assay on OVCAR-4 ovarian and in the assay with A549 NSCLC was above 100 µM each time. Moreover, the TGI in the assay with NCI/ADR-RES ovarian and in the assay with UO-31 renal was above 100 µM throughout.

`COc1ccc([C@@H]2ON(C)[C@H]3CN(C)C(=O)[C@@H]23)cc1`: the TGI in the assay with DU-145 prostate, in the assay with T-47D breast, in the assay on SF-295 CNS, in the assay on NCI-H226 lung, in the assay on OVCAR-4 ovarian and in the assay with A549 NSCLC was above 100 µM each time. Also, the TGI with NCI/ADR-RES ovarian and in the assay with UO-31 renal was above 100 µM in each case.

On to `C/C=C/[P+](c1ccccc1)(c1ccccc1)c1ccccc1`, for which the TGI came out at 18.6 µM in the assay on DU-145 prostate; 1.43 µM in the assay on T-47D breast; 12 µM in the assay with SF-295 CNS; 41.4 µM in the assay with NCI-H226 lung; 25.4 µM in the assay on OVCAR-4 ovarian; 13.6 µM in the assay on MALME-3M melanoma. Moreover, the TGI was 16.7 µM with SF-539 CNS, above 100 µM in the assay with A549 NSCLC, above 100 µM with NCI/ADR-RES ovarian and 88.6 µM in the assay on UO-31 renal.

Turning to `O=C1c2c(c3c4ccccc4[nH]c3c3ccc4ccccc4c23)C(=O)N1CCN1CCCCC1`, the GI50 in the assay with DU-145 prostate was 1.05 µM; in the assay on T-47D breast, 1.61 µM; with NCI-H226 lung, 1.23 µM; with OVCAR-4 ovarian, 2.03 µM; with MALME-3M melanoma, 1.33 µM; in the assay on SF-539 CNS, 1.41 µM. Further, the GI50 in the assay on A549 NSCLC is 3.1 µM; in the assay with NCI/ADR-RES ovarian, 0.797 µM. Also, the TGI with DU-145 prostate was determined as 14.5 µM; with T-47D breast, 7.87 µM; in the assay on NCI-H226 lung, 3.39 µM; with OVCAR-4 ovarian it was 5.74 µM; in the assay with MALME-3M melanoma it was 2.92 µM; with SF-539 CNS, 3.21 µM. Moreover, the TGI is above 100 µM in the assay with A549 NSCLC and 3.31 µM in the assay with NCI/ADR-RES ovarian.

Regarding `Cc1ccc(Oc2ccc(C)cc2[N+](=O)[O-])cc1`, the TGI with SF-295 CNS, in the assay with NCI-H226 lung, in the assay with OVCAR-4 ovarian, with MALME-3M melanoma, in the assay with SF-539 CNS and in the assay with A549 NSCLC was above 100 µM throughout. In the assay on UO-31 renal, this compound came in with a TGI above 100 µM.

For `COc1ccc(-c2c3c(nc4nc(SCCc5ccccc5)nc(N)c24)CCCC3)cc1OC`, the TGI in the assay on DU-145 prostate, in the assay with T-47D breast, with SF-295 CNS, with OVCAR-4 ovarian, with MALME-3M melanoma and in the assay on SF-539 CNS was above 100 µM each time. For the same compound, the TGI in the assay on A549 NSCLC, with NCI/ADR-RES ovarian and with UO-31 renal was above 100 µM throughout.

Turning to `CCCCCCCSc1nc2c(C(=O)OCC)ncn2c2ccccc12`, the TGI in the assay with SF-295 CNS, with NCI-H226 lung, in the assay with MALME-3M melanoma and with UO-31 renal was above 100 µM in each case.

As to `COc1ccc(N2C(=O)C3c4[nH]c5c(C)cccc5c4C4CCC(C(C)(C)C)CC4C3C2=O)cc1` (configuration not stated), the TGI in the assay on DU-145 prostate, with T-47D breast, in the assay on SF-295 CNS, in the assay on NCI-H226 lung, in the assay with OVCAR-4 ovarian and with MALME-3M melanoma was above 10 µM in each case. Also, the TGI in the assay with SF-539 CNS, in the assay on A549 NSCLC, in the assay with NCI/ADR-RES ovarian and with UO-31 renal was above 10 µM each time.

In the case of `CC(=O)C(O)N1C(=O)C=CC1=O` (configuration not stated), the GI50 in the assay on DU-145 prostate is 11700 µM; in the assay on NCI/ADR-RES ovarian it was 12000 µM; in the assay on UO-31 renal, 2260 µM. The TGI was above 25 µM in the assay on T-47D breast; 16.4 µM and 35.9 µM in the assay on A549 NSCLC.

In the case of `Cc1sc(Cc2ccccc2)nc1-c1ccc(N)cc1`, the TGI with SF-295 CNS was above 100 µM; with OVCAR-4 ovarian it was 51.1 µM; in the assay on MALME-3M melanoma it was 90.2 µM; with A549 NSCLC it was above 100 µM; in the assay with NCI/ADR-RES ovarian it was above 100 µM; with UO-31 renal, above 100 µM.

Turning to `NC(=O)CCCC(NCc1c2ccccc2nc2ccccc12)C(=O)O` (configuration not stated), the TGI in the assay on SF-295 CNS is above 100 µM; with NCI-H226 lung it was above 100 µM; in the assay with OVCAR-4 ovarian, 41.7 µM; with MALME-3M melanoma, above 100 µM; with SF-539 CNS it was above 100 µM; with A549 NSCLC it was above 100 µM.

On to `O=S(=O)(Sc1ccc(Cl)cc1)c1ccc(Cl)cc1`, for which the TGI turned out to be 27.2 µM in the assay on SF-295 CNS; 30.9 µM in the assay on NCI-H226 lung; 41.7 µM in the assay with OVCAR-4 ovarian; 48.9 µM in the assay on MALME-3M melanoma; 27.7 µM with SF-539 CNS; 32.7 µM in the assay with A549 NSCLC. In the assay on UO-31 renal, this compound showed a TGI of 23.9 µM.

For the compound `CC1C(O)C2(Oc3cc4c(c5c3[C@@H](CC5O)[C@H]2C)CCC2Cc3nc5c(nc3C[C@@]42C)CC2CCC3C4=C[C@H]6O[C@@]7(O[C@@](C)(CO)C[C@@H]7O)C(C)[C@@]6(O)[C@]4(C)[C@@H](O)CC3[C@]2(C)C5)OC1(C)C` (some centres not stated), the TGI in the assay on SF-295 CNS is 0.105 µM; with NCI-H226 lung, 1.23 µM; with OVCAR-4 ovarian, above 3.67 µM; in the assay with MALME-3M melanoma it was 0.66 µM; in the assay on SF-539 CNS, 0.302 µM; with A549 NSCLC, 0.841 µM. Moreover, the TGI is above 3.67 µM with NCI/ADR-RES ovarian and 3.14 µM in the assay on UO-31 renal.

`O=NC1C(Cl)C2CC1C1C(Br)C(Br)CC21` (configuration not stated): the TGI with DU-145 prostate, in the assay on T-47D breast, with SF-295 CNS, in the assay on NCI-H226 lung, in the assay on OVCAR-4 ovarian and in the assay on MALME-3M melanoma was above 100 µM in each case. In addition, the TGI in the assay on SF-539 CNS, in the assay on A549 NSCLC, in the assay with NCI/ADR-RES ovarian and in the assay with UO-31 renal was above 100 µM throughout.

For `N#CC(c1ccccc1)c1nc2ccc(=N)cc-2n(O)c1C(C#N)c1ccccc1` (configuration not stated), the TGI in the assay with SF-295 CNS, with NCI-H226 lung, in the assay on OVCAR-4 ovarian, in the assay on MALME-3M melanoma, in the assay on SF-539 CNS and in the assay with A549 NSCLC was above 100 µM each time. For the same compound, the TGI with UO-31 renal was above 100 µM.

Regarding `CN1CCCCC1CCN1CCCCC1` (configuration not stated), the TGI in the assay on DU-145 prostate, in the assay on T-47D breast, in the assay on SF-295 CNS, with NCI-H226 lung, in the assay with OVCAR-4 ovarian and in the assay on MALME-3M melanoma was above 100 µM in each case. Moreover, the TGI in the assay on A549 NSCLC, with NCI/ADR-RES ovarian and with UO-31 renal was above 100 µM each time.

Take `CN(C)CCNc1nc(-c2ccc3ccccc3c2)nc2nc[nH]c12`: the TGI in the assay with DU-145 prostate turned out to be 23.7 µM; in the assay with T-47D breast, 29.7 µM; with SF-295 CNS, 26.9 µM; with NCI-H226 lung, 16.6 µM; with OVCAR-4 ovarian, 23.8 µM; in the assay with MALME-3M melanoma, 16.6 µM. Further, the TGI in the assay with A549 NSCLC was 26.3 µM; in the assay with NCI/ADR-RES ovarian, 22.9 µM; with UO-31 renal, 12.9 µM.

With `CN(C)c1ccc(/C=N\NC(=O)CSCC(=O)N/N=C/c2ccc(N(C)C)cc2)cc1`, the TGI in the assay on DU-145 prostate was above 100 µM; with T-47D breast, 88.6 µM; with SF-295 CNS, above 100 µM; in the assay on NCI-H226 lung, above 100 µM; with OVCAR-4 ovarian it was above 100 µM; with MALME-3M melanoma it was above 100 µM. The TGI in the assay with SF-539 CNS, with A549 NSCLC, with NCI/ADR-RES ovarian and in the assay on UO-31 renal was above 100 µM each time.

`CC12CCC(C(=O)OC1=O)C(C)(C)O2` (configuration not stated): the TGI in the assay on DU-145 prostate, with T-47D breast, in the assay with SF-295 CNS, with NCI-H226 lung, with OVCAR-4 ovarian and with MALME-3M melanoma was above 100 µM throughout. For the same compound, the TGI with SF-539 CNS, in the assay with A549 NSCLC, with NCI/ADR-RES ovarian and with UO-31 renal was above 100 µM each time.

`Cc1cc(NCc2cc(Nc3ccnc4cc(Cl)ccc34)ccc2F)nc(N2CCCC2)n1`: the GI50 in the assay with DU-145 prostate is 1.94 µM; in the assay on OVCAR-4 ovarian it was 1.27 µM; in the assay with A549 NSCLC, 2.22 µM; in the assay with UO-31 renal, 1.27 µM. The TGI with DU-145 prostate came out at 4.46 µM; in the assay with OVCAR-4 ovarian, 4.54 µM; in the assay with A549 NSCLC, 6.02 µM; with UO-31 renal, 2.86 µM.

For `Cc1c2cc[n+](CCN3CCCCC3)cc2c(C)c2c1[nH]c1ccc(O)cc12`, the TGI is 11.5 µM in the assay with DU-145 prostate; 12.1 µM with T-47D breast; 18.4 µM and > 100 µM in the assay with SF-295 CNS; 55.1 µM and 32.7 µM with NCI-H226 lung; 7.39 µM and 24.6 µM with OVCAR-4 ovarian; 25.9 µM and 19.2 µM with MALME-3M melanoma. The TGI is 34.5 µM and > 58.8 µM in the assay with SF-539 CNS; 34.7 µM and 27.8 µM with A549 NSCLC; 72.2 µM and > 100 µM in the assay on NCI/ADR-RES ovarian; 69.9 µM and 61.2 µM in the assay on UO-31 renal. Besides, the GI50 in the assay with SF-295 CNS was 5.43 µM; in the assay with NCI-H226 lung, 1.47 µM and 3.75 µM; with OVCAR-4 ovarian, 2.98 µM; in the assay with MALME-3M melanoma, 3.17 µM; with SF-539 CNS, 7.38 µM; in the assay with NCI/ADR-RES ovarian it was 27.4 µM. Further, the GI50 in the assay with UO-31 renal was 9.25 µM.
